Columns and labels:
Assay type in all cases: biochemical
JAK3 = biological target: T1, JAK3 (Homo sapiens, UniProt P52333); experiment: Z'-LYTE kinase assay, JAK3 tyrosine phosphorylation activity
T1 construct: 5 μl of catalytic domain recombinant Kinase enzyme+Tyr peptide substrate (Invitrogen, Calif.); purchased Invitrogen
Protocol: (§1) JAK and TYK2 tyrosine phosphorylation activity is measured using the Z′-LYTE™ Technology developed by Invitrogen Corporation (Carlsbad, Calif.). For JAK1, JAK2 and JAK3 the Z′-LYTE™ Kinase Assay Kit-Tyr6 Peptide (part number PV4122) was used. For TYK2 the Z′-LYTE™ Kinase Assay Kit-Tyr6 Peptide (part number PV3192) was used. The Z′-LYTE™ biochemical assay employs a fluorescence resonance energy transfer (FRET) coupled-enzyme format and is based on the differential sensitivity of phosphorylated and non-phosphorylated peptides to proteolitic cleavage. The assay uses a synthetic peptide substrate that is labelled with a donor fluorophore (coumarin) and an acceptor fluorophore (fluorescein) that make up a FRET pair. In the primary reaction (the Kinase Reaction), the kinase transfers the γ-phosphate of ATP to a single tyrosine residue on the substrate, while the presence of a kinase inhibitor in the primary reaction suppresses phosphorylation. In the secondary reaction (the Development Reaction), a site-specific protease (the Development Reagent) is added. The development buffer quenches the Kinase Reaction, while the protease recognizes and cleaves non-phosphorylated Z′-LYTE™ peptide substrate. Cleavage disrupts FRET between the donor and acceptor fluorophores on the non-phosphoryleted substrate, while uncleaved, phosphorylated substrate maintains FRET.
(§2) To test the ability of candidate molecules to inhibit JAK tyrosine phosphorylation activity, molecules are reconstituted in 100% DMSO and serially diluted 1:10 in polypropylene v-bottom microtiter plates. The candidate molecules are then diluted 1:25 into kinase buffer and 2.5 μl transferred into duplicate wells of a 384 well low volume black microtiter assay plate (Corning, USA). The final DMSO concentration in the assay is 1%. The kinase reaction contains 2.5 μl of a candidate molecule, 5 μl of catalytic domain recombinant Kinase enzyme+Tyr peptide substrate (Invitrogen, Calif.) and 2.5 μl ATP (Invitrogen, Calif.). The kinase reaction is allowed to procede for 1 hour at room temperature. The protease reaction is initiated by the addition of 5 μl Development Reagent (Invitrogen, Calif.). After 1 hour incubation at room temperature the fluorescence is measured using a FlexStation plate reader (Molecular Devices, Sunnyvale, Calif.). The reader settings used are as follows: Fluorescence mode, endpoint, top read, excitation 400 nm, emission 445 nm and 520 nm, Auto Cutoff 435 nm and 515 nm, PMT sensitivity high, 6 reads per well. Inhibition of JAK activity is calculated as the percent phosphorylation of substrate in the presence of inhibitor compared to the percent phosphorylation of substrate in the absence of inhibitor. IC50's were derived using Xlfit 4.3 (IDBS, UK), 4 parameter logistic model 205: Y=(A+((B−A)/(1+((C/x)^D)))).

JAK2 = biological target: T2, JAK2 (Homo sapiens, UniProt O60674); experiment: Z'-LYTE kinase assay, JAK2 tyrosine phosphorylation activity
T2 construct: 5 μl of catalytic domain recombinant Kinase enzyme+Tyr peptide substrate (Invitrogen, Calif.); purchased Invitrogen
T2 sequence (O60674 849-1124 limits assumed): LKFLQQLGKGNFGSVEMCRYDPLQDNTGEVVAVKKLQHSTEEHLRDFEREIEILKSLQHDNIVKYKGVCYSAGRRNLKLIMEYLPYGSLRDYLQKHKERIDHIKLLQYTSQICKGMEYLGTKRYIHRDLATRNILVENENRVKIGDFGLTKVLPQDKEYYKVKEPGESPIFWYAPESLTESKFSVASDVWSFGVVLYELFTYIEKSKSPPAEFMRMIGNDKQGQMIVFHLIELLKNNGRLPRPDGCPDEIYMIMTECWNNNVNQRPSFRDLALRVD
Protocol: as §1, §2

JAK1 = biological target: T3, JAK1 (Homo sapiens, UniProt P23458); experiment: Z'-LYTE kinase assay, JAK1 tyrosine phosphorylation activity; conditions: read-out: JAK 1 IC50
T3 construct: 5 μl of catalytic domain recombinant Kinase enzyme+Tyr peptide substrate (Invitrogen, Calif.); purchased Invitrogen
T3 sequence (P23458 875-1153 limits assumed): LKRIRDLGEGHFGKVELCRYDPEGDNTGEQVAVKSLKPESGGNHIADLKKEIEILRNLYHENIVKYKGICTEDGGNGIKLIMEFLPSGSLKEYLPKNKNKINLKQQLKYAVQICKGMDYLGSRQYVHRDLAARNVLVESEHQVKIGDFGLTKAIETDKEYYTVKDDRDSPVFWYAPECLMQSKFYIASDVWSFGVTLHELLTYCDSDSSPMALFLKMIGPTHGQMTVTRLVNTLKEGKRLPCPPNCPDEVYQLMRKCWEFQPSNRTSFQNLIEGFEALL
Protocol: as §1, §2

T1 sequence (P52333 822-1111 limits assumed): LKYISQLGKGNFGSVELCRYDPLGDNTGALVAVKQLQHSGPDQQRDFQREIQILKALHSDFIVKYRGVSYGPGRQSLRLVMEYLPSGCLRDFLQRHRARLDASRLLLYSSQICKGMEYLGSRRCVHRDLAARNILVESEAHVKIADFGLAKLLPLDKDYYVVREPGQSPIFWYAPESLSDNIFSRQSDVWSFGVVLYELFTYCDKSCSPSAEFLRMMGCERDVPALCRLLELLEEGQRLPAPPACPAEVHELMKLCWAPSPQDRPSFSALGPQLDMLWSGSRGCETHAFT

Work on `CC(=O)Nc1cccc(Nc2ncc(C(N)=O)c(NCC3CCCC3)n2)c1` [Example 280, 2-(3-acetamidophenylamino)-4-(cyclopentylmethylamino)pyrimidine-5-carboxamide] yielded an IC50 (JAK3) of less than 1 nM.

Compound `NC(=O)c1cnc(Nc2cccc(NC(=O)N3CCCC3)c2)nc1NCC1CCCC1` [Example 281] has an IC50 (JAK3) of 100 to 1000 nM.

`NC(=O)c1cnc(Nc2cccc(NC(=O)N3CC[C@@H](O)C3)c2)nc1NCc1ccccc1` [Example 282, (R)-4-(benzylamino)-2-(3-(3-hydroxypyrrolidine-1-carboxamido)phenylamino)pyrimidine-5-carboxamide] gave an IC50 (JAK3) of less than 1 nM.

For `NC(=O)c1cnc(Nc2cccc(NC(=O)N3CC[C@@H](F)C3)c2)nc1NCc1ccccc1` [Example 283, (R)-4-(benzylamino)-2-(3-(3-fluoropyrrolidine-1-carboxamido)phenylamino)pyrimidine-5-carboxamide], the IC50 (JAK3) was less than 1 nM.

`NC(=O)c1cnc(Nc2cccc(NC(=O)N3CC[C@H](F)C3)c2)nc1NCc1ccccc1` [Example 284, (S)-4-(benzylamino)-2-(3-(3-fluoropyrrolidine-1-carboxamido)phenylamino)pyrimidine-5-carboxamide] gave an IC50 (JAK3) of less than 1 nM.

In the case of `NC(=O)c1cnc(Nc2ccc(F)c(NC(=O)N3CCCC3)c2)nc1NCc1ccccc1F` [Example 288, 2-(4-fluoro-3-(pyrrolidine-1-carboxamido)phenylamino)-4-(2-fluorobenzylamino)pyrimidine-5-carboxamide], the IC50 (JAK3) is reported as 1 to 10 nM.

`NC(=O)c1cnc(Nc2cccc(NC(=O)N3CC[C@@H](F)C3)c2)nc1NCc1ccccc1F` [Example 289, (R)-4-(2-fluorobenzylamino)-2-(3-(3-fluoropyrrolidine-1-carboxamido)phenylamino)pyrimidine-5-carboxamide] showed an IC50 (JAK3) of 10 to 100 nM.

`NC(=O)c1cnc(Nc2ccc(F)c(NC(=O)N3CCC3)c2)nc1NCc1ccccc1F` [Example 290, 2-(3-(azetidine-1-carboxamido)-4-fluorophenylamino)-4-(2-fluorobenzylamino)pyrimidine-5-carboxamide] showed an IC50 (JAK3) of 1 to 10 nM.

For `NC(=O)c1cnc(Nc2cccc(NC(=O)c3ccccn3)c2)nc1NCc1ccccc1F` [Example 295, 4-(2-fluorobenzylamino)-2-(3-(picolinamido)-phenylamino)pyrimidine-5-carboxamide], the IC50 (JAK3) was 10 to 100 nM.

`NC(=O)c1cnc(Nc2cccc(NC(=O)c3cccnc3)c2)nc1NCc1ccccc1F` [Example 296, 4-(2-fluorobenzylamino)-2-(3-(nicotinamido)-phenylamino)pyrimidine-5-carboxamide] gave an IC50 (JAK3) of less than 1 nM.

`NC(=O)c1cnc(Nc2cccc(NC(=O)Cc3cccnc3)c2)nc1NCc1ccccc1F` [Example 297, 4-(2-fluorobenzylamino)-2-(3-(2-(pyridin-3-yl)acetamido)-phenylamino)pyrimidine-5-carboxamide] gave an IC50 (JAK3) of 1 to 10 nM.

In the case of `NC(=O)c1cnc(Nc2cccc(NC(=O)c3cccc(O)n3)c2)nc1NCc1ccccc1F` [Example 298, 4-(2-fluorobenzylamino)-2-(3-(6-hydroxypicolinamido)-phenylamino)pyrimidine-5-carboxamide], the IC50 (JAK3) is reported as 1 to 10 nM.

`NC(=O)c1cnc(Nc2cccc(NC(=O)Cc3ccncc3)c2)nc1NCc1ccccc1F` [Example 299, 4-(2-fluorobenzylamino)-2-(3-(2-(pyridin-4-yl)acetamido)-phenylamino)pyrimidine-5-carboxamide] showed an IC50 (JAK3) of less than 1 nM.

`NC(=O)c1cnc(Nc2cccc(NC(=O)Cc3ccccn3)c2)nc1NCc1ccccc1F` [Example 300, 4-(2-fluorobenzylamino)-2-(3-(2-(pyridin-2-yl)acetamido)-phenylamino)pyrimidine-5-carboxamide] gave an IC50 (JAK3) of less than 1 nM.

Compound `CC(=O)Nc1cccc(Nc2ncc(C(N)=O)c(Nc3ccc(NC(=O)CC#N)cc3)n2)c1` [Example 301, 2-(3-acetamidophenylamino)-4-(4-(2-cyanoacetamido)-phenylamino)pyrimidine-5-carboxamide] has an IC50 (JAK3) of 1 to 10 nM.

Work on `CC(=O)Nc1cccc(Nc2ncc(C(N)=O)c(Nc3ccc(NC(=O)C4(C#N)CC4)cc3)n2)c1` [Example 302, 2-(3-acetamidophenylamino)-4-(4-(1-cyanocyclopropane-carboxamido)phenylamino)pyrimidine-5-carboxamide] yielded an IC50 (JAK3) of 10 to 100 nM.

For `CC(=O)Nc1cccc(Nc2ncc(C(N)=O)c(Nc3ccc(NC(=O)CC(F)(F)F)cc3)n2)c1` [Example 303, 2-(3-acetamidophenylamino)-4-(4-(3,3,3-trifluoro-propanamido)phenylamino)pyrimidine-5-carboxamide], the IC50 (JAK3) was 10 to 100 nM.

Compound `NC(=O)c1cnc(Nc2ccc(F)c(NC(=O)N3CCCC3)c2)cc1NCc1cccnc1` [Example 304, 6-(4-fluoro-3-(pyrrolidine-1-carboxamido)phenylamino)-4-(pyridin-3-ylmethylamino)nicotinamide] has an IC50 (JAK3) of 10 to 100 nM, an IC50 (JAK2) greater than 1000 nM and an IC50 (JAK1) greater than 1000 nM.

`NC(=O)c1cnc(Nc2ccc(F)c(NC(=O)N3CCCC3)c2)cc1NCc1cccc(F)c1` [Example 307] showed an IC50 (JAK3) of 10 to 100 nM, an IC50 (JAK2) of 100 to 1000 nM and an IC50 (JAK1) of 100 to 1000 nM.

With `NC(=O)c1cnc(Nc2cccc(NC(=O)N3CCOCC3)c2)cc1NCc1cccc(F)c1` [Example 308, N-(3-(5-carbamoyl-4-(3-fluorobenzylamino)pyridin-2-ylamino)phenyl)morpholine-4-carboxamide] the IC50 (JAK3) was 1 to 10 nM, the IC50 (JAK2) was 10 to 100 nM and the IC50 (JAK1) was 100 to 1000 nM.

With `NC(=O)c1cnc(Nc2cccc(NC(=O)N3CCCC3)c2)cc1NCc1cccc(F)c1` [Example 309, 4-(3-fluorobenzylamino)-6-(3-(pyrrolidine-1-carboxamido)phenylamino)nicotinamide] the IC50 (JAK3) was 1 to 10 nM, the IC50 (JAK2) was 10 to 100 nM and the IC50 (JAK1) was 100 to 1000 nM.

`CC(=O)Nc1cccc(Nc2cc(NCc3cccc(F)c3)c(C(N)=O)cn2)c1` [Example 310, 6-(3-acetamidophenylamino)-4-(3-fluorobenzylamino)nicotinamide] was tested, and the IC50 (JAK3) was 1 to 10 nM, the IC50 (JAK2) was 100 to 1000 nM and the IC50 (JAK1) was 100 to 1000 nM.

`NC(=O)c1cnc(Nc2ccc(F)c(NC(=O)N3CCC3)c2)cc1N[C@H](CO)c1ccccc1` [Example 311, (S)-6-(3-(azetidine-1-carboxamido)-4-fluorophenylamino)-4-(2-hydroxy-1-phenylethylamino)nicotinamide] was tested, and the IC50 (JAK3) was 1 to 10 nM, the IC50 (JAK2) was 100 to 1000 nM and the IC50 (JAK1) was greater than 1000 nM.

`NC(=O)c1cnc(Nc2ccc(F)c(NC(=O)N3CCCC3)c2)cc1N[C@H](CO)c1ccccc1` [Example 313, (S)-6-(4-fluoro-3-(pyrrolidine-1-carboxamido)phenylamino)-4-(2-hydroxy-1-phenylethylamino)nicotinamide] gave an IC50 (JAK3) of 10 to 100 nM, an IC50 (JAK2) greater than 1000 nM and an IC50 (JAK1) greater than 1000 nM.

For `NC(=O)c1cnc(Nc2cccc(NC(=O)N3CCOCC3)c2)cc1N[C@H](CO)c1ccccc1` [Example 314, (S)—N-(3-(5-carbamoyl-4-(2-hydroxy-1-phenylethylamino)pyridin-2-ylamino)phenyl)morpholine-4-carboxamide], the IC50 (JAK3) was 1 to 10 nM, the IC50 (JAK2) was 100 to 1000 nM and the IC50 (JAK1) was 100 to 1000 nM.

`NC(=O)c1cnc(Nc2cccc(NC(=O)N3CCCC3)c2)cc1N[C@H](CO)c1ccccc1` [Example 315, (S)-4-(2-hydroxy-1-phenylethylamino)-6-(3-(pyrrolidine-1-carboxamido)phenylamino)nicotinamide] gave an IC50 (JAK3) of 1 to 10 nM, an IC50 (JAK2) of 100 to 1000 nM and an IC50 (JAK1) greater than 1000 nM.

`CC(=O)Nc1cccc(Nc2cc(N[C@H](CO)c3ccccc3)c(C(N)=O)cn2)c1` [Example 316, (S)-6-(3-acetamidophenylamino)-4-(2-hydroxy-1-phenylethylamino)nicotinamide] gave an IC50 (JAK3) of 10 to 100 nM, an IC50 (JAK2) of 100 to 1000 nM and an IC50 (JAK1) of 100 to 1000 nM.

With `NC(=O)c1cnc(Nc2ccc(F)c(NC(=O)N3CCC3)c2)cc1NCc1cccnc1` [Example 317, 6-(3-(azetidine-1-carboxamido)-4-fluorophenylamino)-4-(pyridin-3-ylmethylamino)nicotinamide] the IC50 (JAK3) was 10 to 100 nM, the IC50 (JAK2) was greater than 1000 nM and the IC50 (JAK1) was greater than 1000 nM.

`CN(C)[C@@H]1CCN(C(=O)Nc2cccc(Nc3cc(NCc4cccnc4)c(C(N)=O)cn3)c2)C1` [Example 318, (R)-6-(3-(3-(dimethylamino)pyrrolidine-1-carboxamido)phenylamino)-4-(pyridin-3-ylmethylamino)nicotinamide] showed an IC50 (JAK3) of 10 to 100 nM, an IC50 (JAK2) of 100 to 1000 nM and an IC50 (JAK1) greater than 1000 nM.
